Experimental data reported in US9624244B2, “Benzo [B] isoxazoloazepine bromodomain inhibitors and uses thereof” (Constellation Pharmaceuticals, Inc., priority 2012, dated 2017).

Key:
BRD4(BD1) = target: T1, BRD4(BD1) (Homo sapiens, UniProt O60885); assay: BRD4 AlphaLisa binding assay; conditions: BRD4(BD1) 30 nM, biotinylated H4-tetraacetyl peptide 200 nM, read-out: AS IC50
T1 construct: His; made in house
Procedure: IC50 Measurements for Inhibitors Using BRD4 AlphaLisa Binding Assay
Specifically, in a 384 well ProxiPlate BRD4(BD1) (30 nM final) was combined with peptide (200 nM final) in 40 mM HEPES (pH 7.0), 40 mM NaCl, 1 mM DTT, 0.01% (w/v) BSA, and 0.008% (w/v) Brij-35 either in the presence of DMSO (final 1.2% DMSO) or compound dilution series in DMSO. After 20 minute incubation at room temperature Alpha streptavidin donor beads and AlphaLisa anti-Flag acceptor beads were added to a final concentration of 10 ug/mL each. After three hours equilibration plates were read on an Envision instrument and IC50s calculated using a four parameter non-linear curve fit.

[1] = system: IL-6 secretion, THP-1 cells; assay: Cell-based IL-6 quantification assay (ELISA, Mesoscale) in LPS-stimulated THP-1 cells; conditions: Homo sapiens, LPS 4 μg/mL, 16 h, ELISA value/CellTiter-Glo ratio
Procedure: Cell-Based IL-6 Quantification Assay (ELISA, Mesoscale Assay):
100,000 THP-1 cells were seeded in RPMI1640-10% FBS in 96-well plates. LPS (E. Coli Invitrogen) in RPMI-10% FBS at a final concentration of 4 μg/mL was added to the wells and the cells are then incubated in the presence of various concentrations of compounds for 16 h. Plates are spun ([…], 5 min), an aliquot of 25 uL supernatant is transferred in to an ELISA plate (Mesoscale technology, MSD) and the detection of IL-6 is performed using manufacturer's instructions. The amount of cells in each well is assessed using CellTiter-Glo® (Promega). The ratio of ELISA value/CellTiter-Glo value is used to calculate the percent of inhibition of IL-6 secretion.

[2] = system: MYC mRNA, MV4:11 (AML) or Raji (Burkitt's lymphoma) cells; assay: cMyc RNA quantification assay (QuantiGene); assay type: cell-based; conditions: MV4:11 or Raji cells, 4 h, MYC mRNA normalized to DMSO
Procedure: cMyc RNA Quantification Assay (QuantiGene® Assay):
MV4:11 (AML) or Raji (Burkitt's lymphoma) cells were seeded in a 96-well plate and incubated in the presence of various concentrations of compounds for 4 h. Relative mRNA levels were quantitated by using QuantiGene 2.0 assay (Affymetrix) according to the manufacturer's recommendation. Signals were detected by using an Envision plate reader (Perkin-Elmer). Biological duplicates were averaged and normalized to vehicle (DMSO) control to calculate percent MYC mRNA levels.

| IC50 (BRD4(BD1)) [nM] | IC50 [1] [nM] | Compound | EC50 [2] [nM] |
| --- | --- | --- | --- |
| 29800 | > 15000 | Cc1noc2c1-c1ccccc1NCC2 [Compound 100, 1-methyl-5,6-dihydro-4H-benzo[b]isoxazolo[4,5-d]azepine] | – |
| 2680 | 11900 | Cc1noc2c1-c1ccccc1N(c1ccc(Cl)cc1)CC2 [Compound 101] | – |
| 430 | 4570 | Cc1noc2c1-c1ccccc1N(c1ccc(C#N)cc1)CC2 [Compound 102] | – |
| 750 | – | Cc1noc2c1-c1ccccc1N(c1ccc(C#N)cc1)CC21CC1 [Compound 104] | – |
| 3380 | – | Cc1noc2c1-c1ccccc1N(c1ccc(Cl)cc1)CC21CC1 [Compound 105] | – |
| 230 | > 1000 | Cc1ccc2c(c1)-c1c(C)noc1CCN2c1ccc(C#N)cc1 [Compound 106] | 1980 |
| > 4000 | > 15000 | Cc1cc(C#N)ccc1N1CCc2onc(C)c2-c2ccccc21 [Compound 107] | – |
| 570 | – | Cc1noc2c1-c1cc(C#N)ccc1N(c1ccc(C#N)cc1)CC2 [Compound 108] | – |
| 350 | > 1000 | Cc1noc2c1-c1ccc(-c3cncnc3)cc1N(c1ccc(C#N)cc1)CC2 [Compound 109] | 2040 |
| 80 | > 1000 | Cc1noc2c1-c1ccc(-c3cnn(C)c3)cc1N(c1ccc(C#N)cc1)CC2 [Compound 110] | 780 |
| 300 | > 1000 | Cc1noc(C)c1-c1ccc2c(c1)N(c1ccc(C#N)cc1)CCc1onc(C)c1-2 [Compound 111] | 3330 |
| 50000 | > 15000 | Cc1noc2c1-c1cc(-c3cncnc3)ccc1N(c1ccc(C#N)cc1)CC2 [Compound 112] | – |
| 8900 | 7400 | Cc1noc(C)c1-c1ccc2c(c1)-c1c(C)noc1CCN2c1ccc(C#N)cc1 [Compound 113] | > 4000 |
| 3800 | > 15000 | Cc1noc2c1-c1cc(-c3cnn(C)c3)ccc1N(c1ccc(C#N)cc1)CC2 [Compound 114] | > 4000 |
| 30 | 530 | Cc1noc2c1-c1ccc(-c3ccc(C(=O)O)cc3)cc1N(c1ccc(C#N)cc1)CC2 [Compound 115] | 2120 |
| 60 | 380 | Cc1noc2c1-c1ccc(-c3ccc(N)nc3)cc1N(c1ccc(C#N)cc1)CC2 [Compound 116] | 550 |
| 40 | 150 | Cc1noc2c1-c1ccc(-c3ccc(=O)n(C)c3)cc1N(c1ccc(C#N)cc1)CC2 [Compound 117] | 610 |
| 160 | 520 | Cc1noc2c1-c1ccc(-c3cnn(C)c3)c(C)c1N(c1ccc(C#N)cc1)CC2C (stereo not drawn) [Compound 118] | 830 |
| 150 | 610 | Cc1noc2c1-c1ccc(-c3cnn(C)c3)cc1N(c1ccc(C(N)=O)cc1)CC2 [Compound 119] | 460 |
| 240 | > 1000 | Cc1noc2c1-c1ccc(-c3cnn(C)c3)cc1N(c1ccc(S(C)(=O)=O)cc1)CC2 [Compound 120] | 1460 |

| IC50 (BRD4(BD1)) [nM] | IC50 [1] [nM] | Compound | EC50 [2] [nM] |
| --- | --- | --- | --- |
| 80 | 150 | CCC1CN(c2ccc(C#N)cc2)c2cc(-c3cnn(C)c3)ccc2-c2c(C)noc21 (stereo not drawn) [Compound 121] | 460 |
| 40 | 120 | CCC1CN(c2ccc(C#N)cc2)c2cc(-c3ccc(=O)n(C)c3)ccc2-c2c(C)noc21 (stereo not drawn) [Compound 122] | 240 |
| 40 | 80 | Cc1noc2c1-c1ccc(-c3ccc(N)nc3)cc1N(c1ccc(C#N)cc1)CC2C (stereo not drawn) [Compound 123] | 200 |
| 40 | 120 | Cc1noc2c1-c1ccc(-c3cnn(C)c3)cc1N(c1ccc(C#N)cc1)CC2C (stereo not drawn) [Compound 124] | 260 |
| 40 | 90 | Cc1noc2c1-c1ccc(-c3ccc(=O)n(C)c3)cc1N(c1ccc(C#N)cc1)CC2C (stereo not drawn) [Compound 125] | 170 |
| 1410 | 5280 | Cc1noc2c1-c1cc(C(N)=O)ccc1N(c1ccc(C#N)cc1)CC2 [Compound 126, 6-(4-cyanophenyl)-1-methyl-5,6-dihydro-4H-benzo[b]isoxazolo[4,5-d]azepine-9-carboxamide] | 1790 |
| 9870 | > 15000 | Cc1noc2c1-c1ccccc1N(C)CC2 [Compound 127, 1,6-dimethyl-5,6-dihydro-4H-benzo[b]isoxazolo[4,5-d]azepine] | – |
| 8100 | > 15000 | Cc1noc2c1-c1ccccc1N(C(C)C)CC2 [Compound 128, 6-isopropyl-1-methyl-5,6-dihydro-4H-benzo[b]isoxazolo[4,5-d]azepine] | – |
| 7900 | > 15000 | CCCN1CCc2onc(C)c2-c2ccccc21 [Compound 129, 1-methyl-6-propyl-5,6-dihydro-4H-benzo[b]isoxazolo[4,5-d]azepine] | – |
| 8140 | 3110 | Cc1noc2c1-c1ccccc1N(C(=O)c1ccccc1)CC2 [Compound 132, (1-methyl-4H-benzo[b]isoxazolo[4,5-d]azepin-6(5H)-yl)(phenyl)methanone] | – |
| > 4000 | > 1000 | Cc1noc2c1-c1ccc(Cl)cc1N(S(=O)(=O)c1ccccc1)CC2 [Compound 133, 8-chloro-1-methyl-6-(phenylsulfonyl)-5,6-dihydro-4H-benzo[b]isoxazolo[4,5-d]azepine] | > 4000 |
| 490 | 650 | Cc1noc2c1-c1ccc(-c3cnn(C)c3)cc1N(c1ccc(C#N)cc1)C(=O)C2 [Compound 135, 4-(1-methyl-8-(1-methyl-1H-pyrazol-4-yl)-5-oxo-4H-benzo[b]isoxazolo[4,5-d]azepin-6(5H)-yl)benzonitrile] | 1320 |
| 4770 | 7700 | Cc1onc2c1-c1ccccc1N(c1ccc(Cl)cc1)CC2 [Compound 136, 6-(4-chlorophenyl)-1-methyl-5,6-dihydro-4H-benzo[b]isoxazolo[4,3-d]azepine] | > 4000 |
| 420 | > 1000 | Cc1noc2c1-c1ccc(-c3cnn(C)c3)cc1N(c1ccc(C#N)cc1)CC2CC(N)=O (stereo not drawn) [Compound 137, 2-(6-(4-cyanophenyl)-1-methyl-8-(1-methyl-1H-pyrazol-4-yl)-5,6-dihydro-4H-benzo[b]isoxazolo[4,5-d]azepin-4-yl)acetamide] | 1840 |
| 500 | > 1000 | Cc1noc2c1-c1ccc(-c3cnn(C)c3)cc1N(c1ccc(C#N)cc1)CC2CC#N (stereo not drawn) [Compound 140, 4-(4-(cyanomethyl)-1-methyl-8-(1-methyl-1H-pyrazol-4-yl)-4H-benzo[b]isoxazolo[4,5-d]azepin-6(5H)-yl)benzonitrile] | – |
| 560 | 4390 | Cc1noc2c1-c1ccccc1N(c1ccc(C#N)cc1)C(C)C2 (stereo not drawn) [Compound 141, 4-(1,5-dimethyl-4H-benzo[b]isoxazolo[4,5-d]azepin-6(5H)-yl)benzonitrile] | – |
| > 80000 | > 1000 | Cc1noc2c1-c1ccccc1NC(=O)C2N (stereo not drawn) [Compound 142, 4-amino-1-methyl-4H-benzo[b]isoxazolo[4,5-d]azepin-5(6H)-one] | – |
| 39600 | – | Cc1onc2c1-c1ccccc1NCC2 [Compound 143, 1-methyl-5,6-dihydro-4H-benzo[b]isoxazolo[4,3-d]azepine] | – |
| 24000 | > 15000 | Cc1noc2c1-c1ccccc1NC(C)C2 (stereo not drawn) [Compound 144, 1,5-dimethyl-5,6-dihydro-4H-benzo[b]isoxazolo[4,5-d]azepine] | – |

| Compound | IC50 (BRD4(BD1)) [nM] | IC50 [1] [nM] | EC50 [2] [nM] |
| --- | --- | --- | --- |
| Cc1noc2c1-c1ccccc1N(Cc1ccccc1)CC2 [Compound 130, 6-benzyl-1-methyl-5,6-dihydro-4H-benzo[b]isoxazolo[4,5-d]azepine] | 12900 | 5900 | > 4000 |
| Cc1cccc2c1N(Cc1ccccc1)CCc1onc(C)c1-2 [Compound 131, 6-benzyl-1,7-dimethyl-5,6-dihydro-4H-benzo[b]isoxazolo[4,5-d]azepine] | 20700 | 8500 | > 4000 |
| Cc1noc2c1-c1ccc(-c3cnn(CC(N)=O)c3)cc1N(c1ccc(C#N)cc1)CC2C (stereo not drawn) [Compound 134, 2-(4-(6-(4-cyanophenyl)-1,4-dimethyl-5,6-dihydro-4H-benzo[b]isoxazolo[4,5-d]azepin-8-yl)-1H-pyrazol-1-yl)acetamide] | 30 | 70 | 120 |
